From patent US20240174696A1, “2,8-DIAZASPIRO[4.5]DECANE COMPOUNDS” (Genentech, Inc., priority 2021, published 2024) come the findings set out here.

Bounds are passed on as bounds.

Experiment [1] relates to pYAP(Ser127) in SW1990 cells. Kind of experiment: pYAP(Ser127) HTRF Cellular Assay. The settings on record: Homo sapiens, 4 hours. In kind it is cell-based. The protocol: The SW1990 cells were seeded at 8000 cells/well by adding 30 μL/well of cells in RPMI1640, 10% FBS, 2 mM glutamine culture media to a 384-well plate (Corning 3570). The cells were incubated overnight at 37° C. Next day, compounds were directly added to the cells using the Echo Liquid Handler (Labcyte), incubate at 37° C. for 4 hours.
The HTRF assay was performed using the Cisbio phospho-YAP Ser127 HTRF kit (64YAPPEG). The media was aspirated from the cells. 20 μL of 1X lysis/blocking buffer was added to the cells, gently shake for 30 minutes at room temperature. 1 μL of the premixed antibody solution (1:40 dilution of each phospho-YAP Eu Cryptate antibody and phospho-YAP d2 antibody) was added to the cells. The plate was sealed and incubated overnight at room temperature. The HTRF (665 nm/620 nm) signal was read on the PHERAstar reader (BMG Labtech). The EC50 values were calculated by fitting the % inhibition with a nonlinear four-parameter logistical equation.
A general note: TR-FRET usually uses a lanthanide donor and a delayed reading to cut background.

The subject of experiment [2] is TAZ nuclear translocation in SW1990 cells. Kind of experiment: TAZ Nuclear Translocation Assay. In kind it is cell-based. As to conditions: Homo sapiens, 4 hours. Summed up: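 SW1990 cells in RPMI1640/10% FBS treated with compounds for 4 h at 37 °C, then fixed and immunostained for TAZ with Hoechst nuclear counterstain and imaged by high-content imaging. Read-out is the nuclear/cytoplasmic-ring fluorescence ratio, normalized to DMSO (0%) and an inhibitor control (100%); EC50 from four-parameter fit.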

Experiment [3] addresses Human LATS1 catalytic domain (Homo sapiens (Human), UniProt O95835). Description: LATS1 High ATP HTRF Assay. In kind it is biochemical. The settings on record: 5000 μM ATP, 0.025 nM LATS1; Cheng-Prusoff. The protocol: Human LATS1 catalytic domain which contains the amino acids E590-V1130 (accession NP_004681) was purified in-house. The LATS1 catalytic domain was co-purified with Mob1b (accession NP_775739). The LATS1 biochemical assay was performed using the HTRF KinEASE-STK S1 Kit (Cisbio, Cat #62ST1PEC), following the protocol from the manufacturer. Compounds were dispensed by the Echo Liquid Handler (Labcyte) into a white 384-well plate (PerkinElmer, Cat #6008289). 3 μL of 2×LATS1 enzyme solution was added to the compounds, followed by a 10 minute incubation at room temperature. Then, 3 μL of 2×ATP and STK S1 peptide solution was added to initiate the enzyme reaction for one hour at room temperature. The final condition of the reaction was 0.025 nM LATS1, 5000 μM ATP, 0.5 μM STK S1 peptide in 50 mM HEPES pH 7.2, 10 mM MgCl2, 0.1% BGG, 0.005% Brij-35, 1 mM DTT. The reaction was quenched and the HTRF signal was read.

Experiment [4] addresses T1, Human LATS2 catalytic domain (Homo sapiens (Human), UniProt Q9NRM7). Description: LATS2 High ATP HTRF Assay. In kind it is biochemical. As to conditions: no asterisk: LATS2 High ATP HTRF Assay, 5000 μM ATP, 0.05 nM LATS2. In short, it runs like this: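 LATS2 catalytic domain (G553-V1088) co-purified with Mob1b, 0.05 nM, pre-incubated 10 min with compound, then 5000 μM ATP and 0.5 μM STK S1 peptide in HEPES pH7.2 for 2 h at room temperature. HTRF 665/620 nm read; IC50 by four-parameter fit, Ki via Cheng-Prusoff with ATP Km 105 μM.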

Experiment [5] concerns the target T1, Human LATS2 catalytic domain. Kind of experiment: Standard LATS2 HTRF Assay. In kind it is biochemical. As to conditions: asterisk: Standard LATS2 HTRF Assay, 50 μM ATP, 0.2 nM LATS2. On the procedure:
Human LATS2 catalytic domain which contains the amino acids G553-V1088 (accession NP_055387) was purified in-house. The LATS2 catalytic domain was co-purified with Mob1b (accession NP_775739). The LATS2 biochemical HTRF assay was performed using the HTRF KinEASE-STK S1 Kit (Cisbio, Cat #62ST1PEC), following the protocol from the manufacturer. Compounds were dispensed by the Echo Liquid Handler (Labcyte) into a white 384-well plate (PerkinElmer, Cat #6008289). 3 uL of 2×LATS2 enzyme solution was added to the compounds, following by a 10 minute incubation at room temperature. Then, 2×ATP and STK S1 peptide solution was added to initiate the one hour enzyme reaction at room temperature. The final condition of the reaction was 0.2 nM LATS2, 50 μM ATP, 0.5 μM STK S1 peptide in 50 mM HEPES pH7.2, 10 mM MgCl2, 0.1% BGG, 0.005% Brij-35, 1 mM DTT. The reaction was quenched by adding 6 uL of the detection mixture which contained Streptavidin XL665 and STK Antibody-Cryptate (Cisbio), incubate for 1 hour at room temperature. The HTRF (665 nm/620 nm) signal was read on the Envision plater reader (PerkinElmer). The IC50 values were determined by fitting the % inhibition with a nonlinear four-parameter logistical equation. The Ki values were calculated using the Cheng-Prusoff equation for a competitive inhibitor, IC50═Ki (1+S/Km)+M [E] with ATP Km for LATS2=105 μM.

Chain of Human LATS1 catalytic domain (O95835 590-1130): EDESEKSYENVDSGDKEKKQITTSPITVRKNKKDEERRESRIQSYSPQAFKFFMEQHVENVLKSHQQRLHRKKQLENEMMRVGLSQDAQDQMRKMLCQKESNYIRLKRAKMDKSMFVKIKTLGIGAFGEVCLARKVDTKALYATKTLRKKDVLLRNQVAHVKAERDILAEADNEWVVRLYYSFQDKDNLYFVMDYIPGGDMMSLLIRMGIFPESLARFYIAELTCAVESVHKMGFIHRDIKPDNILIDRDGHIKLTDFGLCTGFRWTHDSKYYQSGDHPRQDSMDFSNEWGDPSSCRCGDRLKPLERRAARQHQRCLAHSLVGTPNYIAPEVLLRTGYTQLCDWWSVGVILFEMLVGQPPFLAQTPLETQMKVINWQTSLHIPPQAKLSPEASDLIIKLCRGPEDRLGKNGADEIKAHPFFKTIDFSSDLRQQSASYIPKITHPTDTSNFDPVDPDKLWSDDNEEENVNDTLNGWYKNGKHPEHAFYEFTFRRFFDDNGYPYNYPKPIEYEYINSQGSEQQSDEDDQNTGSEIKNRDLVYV
Chain of Human LATS1 catalytic domain (Q7L9L4 whole entry partner, the tested form may be a part): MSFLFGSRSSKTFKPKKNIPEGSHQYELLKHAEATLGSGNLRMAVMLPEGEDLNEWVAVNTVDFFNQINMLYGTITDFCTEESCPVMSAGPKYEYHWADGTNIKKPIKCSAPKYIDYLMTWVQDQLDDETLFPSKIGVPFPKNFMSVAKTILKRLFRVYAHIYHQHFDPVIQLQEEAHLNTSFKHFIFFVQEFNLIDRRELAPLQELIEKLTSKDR
T1 sequence (Q9NRM7 553-1088): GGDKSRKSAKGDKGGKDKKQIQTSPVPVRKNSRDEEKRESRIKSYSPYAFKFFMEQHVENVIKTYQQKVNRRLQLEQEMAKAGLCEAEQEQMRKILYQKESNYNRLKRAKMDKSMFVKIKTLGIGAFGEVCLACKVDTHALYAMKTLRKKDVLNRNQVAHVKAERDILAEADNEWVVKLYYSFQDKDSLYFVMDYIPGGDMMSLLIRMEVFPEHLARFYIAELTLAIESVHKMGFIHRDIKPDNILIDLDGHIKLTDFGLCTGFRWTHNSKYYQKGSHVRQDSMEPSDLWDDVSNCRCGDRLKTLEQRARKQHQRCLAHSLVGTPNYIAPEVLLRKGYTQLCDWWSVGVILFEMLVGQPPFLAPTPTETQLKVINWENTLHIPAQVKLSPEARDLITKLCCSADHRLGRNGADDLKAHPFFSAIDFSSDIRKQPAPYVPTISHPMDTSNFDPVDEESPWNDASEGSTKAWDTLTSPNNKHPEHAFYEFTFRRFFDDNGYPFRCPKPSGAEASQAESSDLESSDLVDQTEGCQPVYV
T1 sequence (Q7L9L4 whole entry partner, the tested form may be a part): as the sequence (Q7L9L4 whole entry partner, the tested form may be a part) above

For the compound `C[C@H](O)CN1CCC2(CCN(c3nc(-c4ccncc4)nc4cnccc34)CC2)C1` (single isomer, unassigned) [Compound 115], the EC50 in experiment [1] was determined as 310 nM; in experiment [2] it was 300 nM. Besides, the figures for the Ki in experiment [3] and in experiment [4] were 0.0063 nM and 0.13 nM, respectively.
For `C[C@@H](O)CN1CCC2(CCN(c3nc(-c4ccncc4)nc4cnccc34)CC2)C1` (single isomer, unassigned) [Compound 116], the results for the EC50 in experiment [1] and in experiment [2] were 320 nM and 310 nM, respectively. The Ki is 0.0079 nM in experiment [3] and 0.13 nM in experiment [4].
On to `O[C@@H]1CCC[C@H]1N1CCC2(CCN(c3nc(-c4ccncc4)nc4cnccc34)CC2)C1` (single isomer, unassigned) [Compound 128], for which the results for the EC50 in experiment [1] and in experiment [2] were 360 nM and 300 nM, respectively. In addition, the Ki in experiment [3] was determined as 0.0058 nM; in experiment [4] it was 0.073 nM.
For the compound `O[C@H]1CCC[C@@H]1N1CCC2(CCN(c3nc(-c4ccncc4)nc4cnccc34)CC2)C1` (single isomer, unassigned) [Compound 129], the half-maximal effective concentration (EC50) is 290 nM in experiment [1] and 140 nM in experiment [2]. Besides, the Ki in experiment [3] is 0.0074 nM; in experiment [4], 0.076 nM.
In the case of `c1cc(-c2nc(N3CCC4(CCNC4)CC3)c3ccncc3n2)ccn1` [Compound 101, 2-(pyridin-4-yl)-4-(2,8-diazaspiro[4.5]decan-8-yl)pyrido[3,4-d]pyrimidine], the EC50 in experiment [1] is 1100 nM; in experiment [2], 990 nM. The Ki in experiment [3] is 0.051 nM; in experiment [4], 0.38 nM.
Regarding `CN1CCC2(CCN(c3nc(-c4ccncc4)nc4cnccc34)CC2)C1` [Compound 102, 4-(2-methyl-2,8-diazaspiro[4.5]decan-8-yl)-2-(pyridin-4-yl)pyrido[3,4-d]pyrimidine], the EC50 turned out to be 430 nM in experiment [1] and 350 nM in experiment [2]. Moreover, the Ki in experiment [3] stood at 0.011 nM; in experiment [4] it was 0.98 nM.
For `CC(C)(O)CN1CCC2(CCN(c3nc(-c4ccncc4)nc4cnccc34)CC2)C1` [Compound 110, 2-methyl-1-(8-(2-(pyridin-4-yl)pyrido[3,4-d]pyrimidin-4-yl)-2,8-diazaspiro[4.5]decan-2-yl)propan-2-ol] the same measures were 330 nM, 220 nM, 0.0079 nM and 0.075 nM.
Regarding `N#CC1CC(N2CCC3(CCN(c4nc(-c5ccncc5)nc5cnccc45)CC3)C2)C1` (centres unmarked) [Compound 118, 3-(8-(2-(pyridin-4-yl)pyrido[3,4-d]pyrimidin-4-yl)-2,8-diazaspiro[4.5]decan-2-yl)cyclobutanecarbonitrile], the Ki in experiment [5] was 1.02 nM. Further, the EC50 in experiment [2] was > 10000 nM.
Taken in the same sequence, the figures for `c1cc(-c2nc(N3CCC4(CC3)CCN(C3CCOCC3)C4)c3ccncc3n2)ccn1` [Compound 122, 2-(pyridin-4-yl)-4-(2-(tetrahydro-2H-pyran-4-yl)-2,8-diazaspiro[4.5]decan-8-yl)pyrido[3,4-d]pyrimidine] were 1.02 nM and 990 nM.
Turning to `c1cc(-c2nc(N3CCC4(CCN(CC5COC5)C4)CC3)c3ccncc3n2)ccn1` [Compound 124, 4-(2-(oxetan-3-ylmethyl)-2,8-diazaspiro[4.5]decan-8-yl)-2-(pyridin-4-yl)pyrido[3,4-d]pyrimidine], the EC50 in experiment [1] was 260 nM; in experiment [2] it was 240 nM. The Ki in experiment [3] is 0.0068 nM; in experiment [4], 0.083 nM.
In turn, `c1cc(-c2nc(N3CCC4(CC3)CCN(C3COC3)C4)c3ccncc3n2)ccn1` [Compound 137, 4-(2-(oxetan-3-yl)-2,8-diazaspiro[4.5]decan-8-yl)-2-(pyridin-4-yl)pyrido[3,4-d]pyrimidine] registered a Ki in experiment [5] of 2.17 nM. The compound also gave an EC50 in experiment [2] of 1700 nM.
Take `CCN1CCC2(CCN(c3nc(-c4ccncc4)nc4cnccc34)CC2)C1` [Compound 138, 4-(2-ethyl-2,8-diazaspiro[4.5]decan-8-yl)-2-(pyridin-4-yl)pyrido[3,4-d]pyrimidine]: the EC50 came out at 890 nM in experiment [1] and 590 nM in experiment [2]. The compound also registered a Ki in experiment [4] of 0.61 nM.
Taken in the same sequence, the figures for `Cc1n[nH]cc1-c1nc(N2CCC3(CCN(C)C3)CC2)c2ccncc2n1` [Compound 143, 2-(3-methyl-1H-pyrazol-4-yl)-4-(2-methyl-2,8-diazaspiro[4.5]decan-8-yl)pyrido[3,4-d]pyrimidine] were 1000 nM, 700 nM and 0.15 nM.
`Cc1n[nH]cc1-c1nc(N2CCC3(CC2)CCN(C2CCCC2)C3)c2ccncc2n1` [Compound 147, 4-(2-cyclopentyl-2,8-diazaspiro[4.5]decan-8-yl)-2-(3-methyl-1H-pyrazol-4-yl)pyrido[3,4-d]pyrimidine]: the values for the EC50 in experiment [1] and in experiment [2] were 210 nM and 180 nM, respectively. The Ki in experiment [3] came to 0.013 nM; in experiment [4], 0.056 nM.
`CCN1CCC2(CCN(c3nc(-c4cn[nH]c4C)nc4cnccc34)CC2)C1` [Compound 151, 4-(2-ethyl-2,8-diazaspiro[4.5]decan-8-yl)-2-(5-methyl-1H-pyrazol-4-yl)pyrido[3,4-d]pyrimidine]: the EC50 amounted to 390 nM in experiment [1] and 470 nM in experiment [2]. The Ki in experiment [4] amounted to 0.09 nM.
In experiment [5], `FC(F)(F)c1[nH]ncc1-c1nc(N2CCC3(CCNC3)CC2)c2ccncc2n1` [Compound 154, 4-(2,8-diazaspiro[4.5]decan-8-yl)-2-(5-(trifluoromethyl)-1H-pyrazol-4-yl)pyrido[3,4-d]pyrimidine] yielded a Ki of 0.16 nM. The same compound registered an EC50 in experiment [2] of 7200 nM.
In the case of `c1ccc(Cc2cc3c(N4CCC5(CCNC5)CC4)nc(-c4ccncc4)nc3cn2)cc1` [Compound 157, 6-benzyl-2-(pyridin-4-yl)-4-(2,8-diazaspiro[4.5]decan-8-yl)pyrido[3,4-d]pyrimidine], the EC50 in experiment [1] came out at 510 nM; in experiment [2] it was 240 nM. For the same compound, the inhibition constant (Ki) in experiment [3] amounted to 0.049 nM; in experiment [4] it was 0.067 nM.
Turning to `Cc1cc2c(N3CCC4(CCNC4)CC3)nc(-c3ccncc3)nc2cn1` [Compound 158, 6-methyl-2-(pyridin-4-yl)-4-(2,8-diazaspiro[4.5]decan-8-yl)pyrido[3,4-d]pyrimidine], the Ki in experiment [5] was 1.29 nM. For the same compound, the EC50 in experiment [2] was 3100 nM.
For `CC1CC2(CCN(c3nc(-c4ccncc4)nc4cnccc34)CC2)CN1` (centres unmarked) [Compound 167, 4-(3-methyl-2,8-diazaspiro[4.5]decan-8-yl)-2-(pyridin-4-yl)pyrido[3,4-d]pyrimidine], the results for the EC50 in experiment [1] and in experiment [2] were 300 nM and 540 nM, respectively. Besides, the Ki in experiment [4] came to 0.58 nM.

For orientation: EC50 means the concentration needed to bring the measured effect to its halfway point. A lower EC50 goes with an effect from little substance. The term Ki denotes a dissociation constant, usually derived from enzyme kinetics or from competition with a known ligand. A higher Ki goes with weaker binding.
